# Reference: ChEMBL document CHEMBL1201862, “PubChem BioAssay data set” (2004)
#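 96-well plates; 48 h exposure; 5 concentrations. Endpoints by linear interpolation between flanking doses. Not reached: highest tested concentration assigned. GI50 marks 50% less growth.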 The source made the active and inactive calls. No stated cut-off is given here; in the data, active = GI50 up to about 1.1 µM and inactive = higher. Peptide text beside a SMILES is read from it. * marks the point of attachment. Cbz = O=C(OCc1ccccc1)*
# Columns and labels:
# Test in all cases: NCI-60 cell line screen, 48 h
# [1] = system: CAKI-1
# [2] = system: 786-0
# [3] = system: MDA-N
# [4] = system: HCT-116
# [5] = system: Malme-3M
# [6] = system: ACHN
# [7] = system: HOP-62
# [8] = system: SK-MEL-2
# [9] = system: HL-60
# [10] = system: M14
# [11] = system: SK-MEL-5
# [12] = system: HT-29
# [13] = system: HOP-92
# [14] = system: TK-10
# [15] = system: CCRF-CEM
# [16] = system: PC-3
# [17] = system: SF-539
# [18] = system: SNB-19
# [19] = system: SN12C
# [20] = system: MDA-MB-231
SMILES,GI50 [1],GI50 [2],GI50 [3],GI50 [4],GI50 [5],GI50 [6],GI50 [7],GI50 [8],GI50 [9],GI50 [10],GI50 [11],GI50 [12],GI50 [13],GI50 [14],GI50 [15],GI50 [16],GI50 [17],GI50 [18],GI50 [19],GI50 [20]
CC(=O)/C=C1\Nc2sc(C)c(C)c2C(=O)S1,65.3 µM (inactive),62.8 µM (inactive),88.3 µM (inactive),31.6 µM (inactive),30.6 µM (inactive),74.8 µM (inactive),89.7 µM (inactive),24.2 µM (inactive),32.1 µM (inactive),97.7 µM (inactive),41 µM (inactive),34.1 µM (inactive),> 100 µM (inactive),80.4 µM (inactive),21.7 µM (inactive),25.4 µM (inactive),24.5 µM (inactive),> 100 µM (inactive),84.3 µM (inactive),88.3 µM (inactive)
N=C(N)c1ccc(/N=N\c2c(O)c(C(=O)Nc3ccccc3)cc3ccccc23)cc1,> 58.9 µM (inactive),10.8 µM (inactive),35.7 µM (inactive),3.3 µM (inactive),32.1 µM (inactive),23.3 µM (inactive),14.5 µM (inactive),68.1 µM (inactive),7.98 µM (inactive),> 71.4 µM (inactive),22.4 µM (inactive),18.4 µM (inactive),16.4 µM (inactive),> 44.5 µM (inactive),2.33 µM (inactive),17.9 µM (inactive),21 µM (inactive),19.6 µM (inactive),23.8 µM (inactive),8.04 µM (inactive)
O=C(c1ccco1)N(Cc1ccco1)C(=S)Nc1ccccc1,7.08 µM (inactive),6.3 µM (inactive),10.5 µM (inactive),6.37 µM (inactive),14.7 µM (inactive),19.5 µM (inactive),36.6 µM (inactive),18.8 µM (inactive),1.79 µM (inactive),12 µM (inactive),17.5 µM (inactive),8.71 µM (inactive),7.53 µM (inactive),18.8 µM (inactive),3.79 µM (inactive),30.5 µM (inactive),6.46 µM (inactive),46.9 µM (inactive),14.5 µM (inactive),13.3 µM (inactive)
COc1ccc2oc(=N)c(C(N)=S)cc2c1,37.8 µM (inactive),23.9 µM (inactive),21.1 µM (inactive),17.4 µM (inactive),14.1 µM (inactive),21.4 µM (inactive),31.8 µM (inactive),18.4 µM (inactive),14.3 µM (inactive),32.4 µM (inactive),13.6 µM (inactive),32 µM (inactive),24 µM (inactive),26.1 µM (inactive),20.5 µM (inactive),27.5 µM (inactive),22.1 µM (inactive),31.2 µM (inactive),27.2 µM (inactive),18 µM (inactive)
O=C(O)CCC(NC(=O)OCc1ccccc1)C(=O)NC(Cc1c[nH]cn1)C(=O)O (stereo not drawn) (Cbz-Glu-His-OH; configuration not given here),> 100 µM (inactive),> 100 µM (inactive),> 100 µM (inactive),> 100 µM (inactive),> 100 µM (inactive),> 100 µM (inactive),> 100 µM (inactive),> 100 µM (inactive),> 100 µM (inactive),> 100 µM (inactive),> 100 µM (inactive),> 100 µM (inactive),> 100 µM (inactive),> 100 µM (inactive),> 100 µM (inactive),> 100 µM (inactive),> 100 µM (inactive),> 100 µM (inactive),> 100 µM (inactive),37.1 µM (inactive)
CC1=C(/C=C/C(C)=C/C=C/C(C)=C/C(=O)Nc2ccc(O)cc2)C(C)(C)CCC1 [FENRETINIDE],5.06 µM (inactive),2.58 µM (inactive),2.75 µM (inactive),4.06 µM (inactive),4.94 µM (inactive),4.19 µM (inactive),5.46 µM (inactive),7.33 µM (inactive),0.893 µM (active),4.92 µM (inactive),4.15 µM (inactive),2.63 µM (inactive),2.97 µM (inactive),16.1 µM (inactive),0.057 µM (active),3.13 µM (inactive),1.05 µM (active),6.5 µM (inactive),2.52 µM (inactive),2.95 µM (inactive)
CC(Cc1ccc(O)c(O)c1)C(C)Cc1ccc(O)c(O)c1 (stereo not given) [NORDIHYDROGUAIARETIC ACID],11.4 µM (inactive),17.2 µM (inactive),10.2 µM (inactive),17.3 µM (inactive),15.9 µM (inactive),16.1 µM (inactive),17.1 µM (inactive),18.5 µM (inactive),2.99 µM (inactive),16.5 µM (inactive),16.8 µM (inactive),22.9 µM (inactive),3.14 µM (inactive),23.6 µM (inactive),4.38 µM (inactive),21.9 µM (inactive),17.5 µM (inactive),19.5 µM (inactive),> 36.7 µM (inactive),> 39.1 µM (inactive)
